Patent US4409238A, “Insecticides and insecticidal compositions” (Kuraray Co., Ltd., priority 1977, dated 1983)

What was measured:
[1] = test system: houseflies (Musca domestica); experiment: Mortality test against houseflies by topical application method (Test Example 1); format: in vivo; details: female adult houseflies, 24 hours, 25° C.
Experimental: Each test compound was accurately weighed and a 1% solution and a 0.1% solution of the sample in acetone were prepared. A 1 μl portion of either of the above solutions was micropipetted onto the thoracic dorsal part of each female adult housefly (Musca domestica) under ether anaesthesia and the fly was released in a high-walled dish together with feed. The dish was covered with a metal-wire net and maintained at 25° C. After 24 hours, the test flies were inspected for deaths and the mortality (%) was calculated. Thirty test flies were used per concentration group.

[2] = test system: houseflies (Musca domestica); experiment: Settling mist mortality test against houseflies, oil preparations of Formulation Example 1 (Utility Example 2); format: in vivo; details: oil preparation with 0.2 part compound and 0.8 part piperonyl butoxide per 100 parts, 24 hours
Experimental: 0.2 part of each of Compounds [1], [2], [5] to [13] and [17] was prepared and 0.8 part of piperonyl butoxide was added to each of them. To this mixture was added a sufficient amount of kerosene to make 100 parts, followed by stirring. By this procedure there was obtained an oil preparation of each Compound.
(§1) By the settling mist method, a mortality test against houseflies (Musca domestica) was carried out using the oil preparations obtained according to Formulation Example 1 from Compounds [1], [2], [5] to [11] to [17]. After 24 hours, the flies were examined for deaths. The mortality (%) was not less than 90% for each of Compounds [1], [2], [5] to [11] to [17].

house-flies = experiment: Settling mist mortality test against houseflies, oil preparations of Formulation Example 3 (Utility Example 4); format: in vivo, houseflies (Musca domestica); details: oil preparation with 0.1 part compound and 0.08 part permethrin per 100 parts, 24 hours
Experimental: To 0.1 part of each of Compounds [1] to [28] was added 0.08 part of permethrin, followed by the addition of a sufficient amount of kerosene to make 100 parts. The mixture was stirred to obtain an oil preparation of each compound.
as §1, with “against house-flies” for “against houseflies (Musca domestica)”, “obtained in” for “obtained according to”, “Example 3” for “Example 1”, “[11] and” for “[11] to”

green rice leafhoppers = experiment: Spray test on rice seedlings against green rice leafhoppers (Utility Example 1); format: in vivo, green rice leafhoppers (Nephotettix cincticeps); details: 30% emulsifiable concentrate (Formulation Example 5) diluted 300-fold, 10 ml/pot, 24 hours
Experimental: To 30 parts of each of Compounds [1], [2], [5] to [13] and [17] to [19] was added 50 parts of xylene and 20 parts of Sorpol SM-200 (a surfactant, trademark of Toho Chemical Co., Ltd.). The mixture was stirred well and dissolved to obtain a 30% emulsifiable concentrate.
The emulsifiable concentrate prepared from Compounds [1], [2], [6], [7], [9], [10], [12] and [13] in Formulation Example 5 were each diluted 300-fold with water. Then, each of the dilutions was sprayed over rice seedlings 25 days after sowing at the rate of 10 ml/pot. The pot was covered with a wire-net and 15 green rice leafhoppers were released under the net. After 24 hours, the leafhoppers were examined for deaths. The mortality (%) was not less than 90% for each of Compounds [1], [2], [6], [7], [9], [10], [12] and [13].

houseflies = experiment: Settling mist mortality test against houseflies, oil preparations of Formulation Example 2 (Utility Example 3); format: in vivo, houseflies (Musca domestica); details: oil preparation with 0.1 part compound and 0.1 part resmethrin per 100 parts, 24 hours
Experimental: To 0.1 part of each of Compounds [1] to [17] was added 0.1 part of resmethrin, followed by the addition of a sufficient amount of kerosene to make 100 parts. The mixture was stirred to obtain an oil preparation of each compound.
as §1, with “houseflies” for “houseflies (Musca domestica)”, “preparations made in” for “preparations obtained according to”, “Example 2” for “Example 1”, “[11] and” for “[11] to”

[3] = Light stability test (Test Example 4); format: physicochemical; details: direct sunlight between glass plates, 12° C., relative to aluminum foil-covered control; for remaining at 4 h: read-out: Residue (%) Exposure time 4 hrs.; for remaining at 8 h: read-out: Residue (%) Exposure time 8 hrs.
Experimental: Into 2.0 ml of acetone were dissolved 80 mg of each test compound. A 5 μl portion of the solution was taken and spread on a glass plate (Micro Standard Cover Glass, 18 m/m No. 1, 200 pcs, Matsunami Glass Ind., Ltd.) and the acetone was evaporated. Then, a similar glass plate was superimposed on the above plate in such a manner that the test liquid was sandwitched. The specimen was exposed to direct sunlight at an atmospheric temperature of 12° C. for a predetermined exposure time. As an unexposed control, a similar specimen was covered with an aluminum foil. The test liquid was washed away with 1.0 ml of methanol containing 0.04% of dioctyl phthalate as an internal reference and high-speed liquid chromatography was carried out on the washings to determine the residual amount of the test compound. The residue (%) was calculated with the value for the aluminum foil-covered control specimen as the standard.

[4] = test system: cockroaches (Blattella germanica); experiment: Mortality test against cockroaches by topical application method (Test Example 3); format: in vivo; details: 1 μl of 1% solution in acetone, female cockroaches, 24 hours, 25° C.
Experimental: Each test compound was accurately weighed and made in a 1% solution in acetone. Then, 1 μl of the above solution was micropipetted onto the abdominal part of each female cockroach (Blattella germanica) under ether anaesthesia. The roaches were released in a high-walled dish together with feed and, after the disk was covered with a metal wire net, same was maintained at 25° C. Fifteen roaches per group were employed. After 24 hours, the test roaches were inspected for deaths and the mortality (%) for each group was calculated.

[5] = test system: green rice leafhoppers (Nephotettix cincticeps); experiment: Mortality test against green rice leafhoppers by topical application method (Test Example 2); format: in vivo; details: 0.1% solution in acetone, female adults, 24 hours, 25° C.
Experimental: Each test compound was accurately weighed and an 0.1% solution in acetone was prepared. Female adults of green rice leafhopper (Nephotettix cincticeps) were anaesthetized with carbon dioxide gas and 0.5 µl of the above solution was micropipetted onto the thoracic abdominal part of each leafhopper. Then, the test leafhoppers were kept at 25° C. with access to rice plant seedlings. Each group comprised 15 green rice leafhoppers. After 24 hours, the leafhoppers were inspected for deaths and the mortality (%) was calculated for each compound.

guppies = experiment: Fish toxicity test (Test Example 6); format: in vivo; details: female guppies, 48 hours, 25° C.; concentration at which 90% or more were killed
Experimental: To 5 l of water were added 250 mg of sorpol SM-200 (registered trademark, Toho Chemical Co., Ltd.) or Tween-20 (commercial product) as an emulsifier (surfactant) as well as 2.5 ml of an acetone solution containing one of the test compounds in a predetermined concentration. The mixture was stirred well to prepare a test water. Ten female guppies from 3 to 4 months of age were released into the test water and maintained at 25° C. The concentration of the test compound at which 90% or more of the guppies were killed during the ensuring 48 hours was determined. (This concentration is referred to as LC90).

[6] = Hydrolysis resistance test (Test Example 5); format: physicochemical; details: acetone/water, reflux for 2 days; read-out: Residue (%)
Experimental: Into about 8 ml of acetone were dissolved 100 mg of each test compound and, then, 1.0 g of water was added to this solution to prepare a mixed solution. This mixed solution was refluxed for 2 days. After concentration to about one half of the original volume and with the addition of dioctyl phthalate as an internal reference, the residual amount of the compound was determined by high-speed liquid chromatography. The residue (%) was then calculated.

SMILES | Mortality (%) 1 μg/fly [1] | Mortality (%) 10 μg/fly [1] | Mortality (%) [2] | Mortality (%) (house-flies) | Mortality (%) (green rice leafhoppers) | Mortality (%) (houseflies) | remaining at 4 h [3] | remaining at 8 h [3] | mortality at 1 %, 0.01 mg [4] | mortality at 0.1 % [5] | LC90 (guppies) | remaining at 48 h [6]
CC(C)C(C=C(Cl)Cl)C(=O)OC(C#N)c1cccc(Oc2ccccc2)c1 (stereo not drawn) [Compound [1], α-Cyano-3-phenoxybenzyl α-(2,2-dichlorovinyl)isovalerate] | 100% | 100% | not less than 90% | not less than 90% | not less than 90% | not less than 90% | 93% | 90% | 100% | ≥ 90% |  | 
C#CC(OC(=O)C(C=C(Cl)Cl)C(C)C)c1cccc(Oc2ccccc2)c1 (stereo not drawn) [[2], α-Ethynyl-3-phenoxybenzyl α-(2,2-dichlorovinyl)isovalerate] | 100% | 100% | not less than 90% | not less than 90% | not less than 90% | not less than 90% | 97% | 100% | 80% |  | Not less than 10 ppm | > 90%
